Test results: article PMC8262883, “Human Gut Faecalibacterium prausnitzii Deploys a Highly Efficient Conserved System To Cross-Feed on β-Mannan-Derived Oligosaccharides” (mBio, 2021)

Target: T1, FpMOBP (Faecalibacterium prausnitzii, UniProt D4KAW3)
T1 construct: gene FPR_17280; mature form without predicted signal peptide, C-terminal His6 tag (pNIC-CH), E. coli BL21 STAR; 48 kDa
T1 sequence (D4KAW3 26-470): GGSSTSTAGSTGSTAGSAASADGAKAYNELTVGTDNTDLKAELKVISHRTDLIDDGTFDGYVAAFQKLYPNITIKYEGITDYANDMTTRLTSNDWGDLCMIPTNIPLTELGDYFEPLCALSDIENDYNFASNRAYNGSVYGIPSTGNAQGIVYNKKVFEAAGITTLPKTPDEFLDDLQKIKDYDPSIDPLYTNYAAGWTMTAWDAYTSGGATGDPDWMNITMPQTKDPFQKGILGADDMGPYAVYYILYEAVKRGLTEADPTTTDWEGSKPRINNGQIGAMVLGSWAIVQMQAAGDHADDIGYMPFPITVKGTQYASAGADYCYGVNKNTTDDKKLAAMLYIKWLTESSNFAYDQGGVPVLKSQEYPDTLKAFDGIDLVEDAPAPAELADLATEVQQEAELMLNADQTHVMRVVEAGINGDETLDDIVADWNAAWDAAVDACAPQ
Assay: isothermal titration calorimetry
Format: binding
Conditions: 25°C, 50 mM sodium phosphate pH 6.5; n = 0.8

OC[C@H]1O[C@@H](O[C@H]2[C@H](O)[C@H](O)[C@H](O[C@H]3[C@H](O)[C@H](O)[C@H](O[C@H]4[C@H](O)[C@H](O)[C@H](O[C@H]5[C@H](O)[C@H](O)[C@H](O[C@H]6[C@H](O)[C@H](O)C(O)O[C@@H]6CO)O[C@@H]5CO)O[C@@H]4CO)O[C@@H]3CO)O[C@@H]2CO)[C@@H](O)[C@@H](O)[C@@H]1O (stereo partly shown) [M6, mannohexaose]
Kd: 189 ± 1.4 µM
